According to PubChem BioAssay AID284 (DTP/NCI, 2004):
Several values for one entry are separate records, joined by “and”; a condition that tells them apart may be missing. Identical values can stand only once. Inconclusive results and toxic doses are left out.

Test system: BDF1 mice, L1210/MTX-resistant leukemia ip, survival T/C
Experiment: NCI In Vivo Anticancer Drug Screen. Data for tumor model L1210 Leukemia resistant to Methotrexate; NSC 740 (intraperitoneal) in B6D2F1 (BDF1) mice
Conditions: endpoint: mean survival time, higher = longer survival
Method: The antitumor activity of compounds was measured in mice bearing transplantable tumors. Survival or tumor size were measured and the results are expressed as the measurement made in the treated group (T) divided by the measurement made in the vehicle treated control group (C). The tumor model used in this assay is L1210 Leukemia resistant to Methotrexate; NSC 740 (intraperitoneal) in B6D2F1 (BDF1) mice

[1] = dose: 62.5 mg/kg/injection, schedule: Q01DX010 (ip), vehicle: saline
[2] = dose: 125.0 mg/kg/injection, schedule: Q01DX010 (ip), vehicle: saline
[3] = dose: 250.0 mg/kg/injection, schedule: Q01DX010 (ip), vehicle: saline
[4] = dose: 500.0 mg/kg/injection, schedule: Q01DX010 (ip), vehicle: saline
[5] = dose: 0.75 mg/kg/injection, schedule: Q01DX Z (ip), vehicle: carboxymethylcellulose (CMC)
[6] = dose: 5.0 mg/kg/injection, schedule: Q01DX010 (ip), vehicle: saline
[7] = dose: 7.5 mg/kg/injection, schedule: Q01DX Z (ip), vehicle: carboxymethylcellulose (CMC)
[8] = dose: 15.0 mg/kg/injection, schedule: Q01DX Z (ip), vehicle: carboxymethylcellulose (CMC)
[9] = dose: 16.0 mg/kg/injection, schedule: Q01DX010 (ip), vehicle: saline
[10] = dose: 32.0 mg/kg/injection, schedule: Q01DX010 (ip), vehicle: saline
[11] = dose: 64.0 mg/kg/injection, schedule: Q01DX010 (ip), vehicle: saline
[12] = dose: 1.6 mg/kg/injection, schedule: Q01DX Z (ip), vehicle: methylcellulose (MC)

SMILES: Cn1cnc([N+](=O)[O-])c1Sc1nc(N)nc2nc[nH]c12
- T/C (dose: 1.0 mg/kg/injection, schedule: Q01DX Z (ip), vehicle: methylcellulose (MC)): 92 % of control
- T/C (dose: 2.0 mg/kg/injection, schedule: Q01DX Z (ip), vehicle: methylcellulose (MC)): 96 % of control
- T/C (dose: 4.0 mg/kg/injection, schedule: Q01DX Z (ip), vehicle: methylcellulose (MC)): 109 % of control

SMILES: OCC1OC(n2cnc3c(Cl)ncnc32)C(O)C1O (stereo not given)
- T/C [1]: 87 % of control and 90 % of control
- T/C [2]: 95 % of control and 98 % of control
- T/C [3]: 95 % of control and 100 % of control
- T/C [4]: 98 % of control

SMILES: Clc1ccc(C(c2ccccc2Cl)C(Cl)Cl)cc1 (stereo not given)
- T/C (dose: 62.5 mg/kg/injection, schedule: Q01DX Z (sc), vehicle: steriod suspending solution): 105 % of control
- T/C (dose: 125.0 mg/kg/injection, schedule: Q01DX Z (sc), vehicle: steriod suspending solution): 99 % of control
- T/C (dose: 250.0 mg/kg/injection, schedule: Q01DX Z (sc), vehicle: steriod suspending solution): 107 % of control
- T/C (dose: 500.0 mg/kg/injection, schedule: Q01DX Z (sc), vehicle: steriod suspending solution): 110 % of control

SMILES: Nc1nc(=S)c2[nH]cnc2[nH]1
- T/C [5]: 97 % of control
- T/C (dose: 1.25 mg/kg/injection, schedule: Q01DX010 (ip), vehicle: saline): 99 % of control and 106 % of control
- T/C (dose: 1.5 mg/kg/injection, schedule: Q01DX Z (ip), vehicle: carboxymethylcellulose (CMC)): 88 % of control
- T/C (dose: 2.5 mg/kg/injection, schedule: Q01DX010 (ip), vehicle: saline): 90 % of control
- T/C (dose: 2.5 mg/kg/injection, schedule: Q01DX Z (ip), vehicle: carboxymethylcellulose (CMC)): 102 % of control
- T/C [6]: 92 % of control
- T/C (dose: 5.0 mg/kg/injection, schedule: Q01DX Z (ip), vehicle: carboxymethylcellulose (CMC)): 107 % of control
- T/C [7]: 108 % of control
- T/C (dose: 10.0 mg/kg/injection, schedule: Q01DX Z (ip), vehicle: carboxymethylcellulose (CMC)): 98 % of control
- T/C [8]: 88 % of control

SMILES: CCn1cnc2c(=S)nc[nH]c21
- T/C (dose: 12.0 mg/kg/injection, schedule: Q01DX Z (ip), vehicle: carboxymethylcellulose (CMC)): 95 % of control
- T/C (dose: 15.6 mg/kg/injection, schedule: Q01DX010 (ip), vehicle: saline): 102 % of control
- T/C (dose: 18.0 mg/kg/injection, schedule: Q01DX Z (ip), vehicle: carboxymethylcellulose (CMC)): 98 % of control
- T/C (dose: 25.0 mg/kg/injection, schedule: Q01DX Z (ip), vehicle: carboxymethylcellulose (CMC)): 121 % of control
- T/C (dose: 31.3 mg/kg/injection, schedule: Q01DX010 (ip), vehicle: saline): 90 % of control
- T/C (dose: 37.0 mg/kg/injection, schedule: Q01DX Z (ip), vehicle: carboxymethylcellulose (CMC)): 89 % of control
- T/C (dose: 100.0 mg/kg/injection, schedule: Q01DX Z (ip), vehicle: carboxymethylcellulose (CMC)): 90 % of control
- T/C [2]: 90 % of control

SMILES: Oc1cc(CN(CCCl)CCCl)c(O)cc1CN(CCCl)CCCl
- T/C (dose: 0.25 mg/kg/injection, schedule: Q01DX Z (ip), vehicle: carboxymethylcellulose (CMC)): 96 % of control
- T/C (dose: 0.37 mg/kg/injection, schedule: Q01DX Z (ip), vehicle: carboxymethylcellulose (CMC)): 110 % of control
- T/C (dose: 0.5 mg/kg/injection, schedule: Q01DX Z (ip), vehicle: carboxymethylcellulose (CMC)): 88 % of control
- T/C [5]: 97 % of control
- T/C (dose: 1.0 mg/kg/injection, schedule: Q01DX Z (ip), vehicle: carboxymethylcellulose (CMC)): 86 % of control
- T/C (dose: 2.0 mg/kg/injection, schedule: Q01DX Z (ip), vehicle: carboxymethylcellulose (CMC)): 88 % of control

SMILES: CCCCn1cnc2c(=S)nc[nH]c21
- T/C [9]: 114 % of control
- T/C [10]: 97 % of control
- T/C [11]: 105 % of control

SMILES: CC[C@]1(O)C[C@H]2CN(CCc3c([nH]c4ccccc34)[C@@](C(=O)OC)(c3cc4c(cc3OC)N(C=O)[C@H]3[C@@](O)(C(=O)OC)[C@H](OC(C)=O)[C@]5(CC)C=CCN6CC[C@]43[C@@H]65)C2)C1
- T/C (dose: 0.03 mg/kg/injection, schedule: Q01DX010 (ip), vehicle: saline): 94 % of control
- T/C (dose: 0.06 mg/kg/injection, schedule: Q01DX010 (ip), vehicle: saline): 106 % of control
- T/C (dose: 0.12 mg/kg/injection, schedule: Q01DX010 (ip), vehicle: saline): 95 % of control
- T/C (dose: 0.25 mg/kg/injection, schedule: Q01DX010 (ip), vehicle: saline): 89 % of control

SMILES: C[C@@H]1C[C@@H]([C@H](O)CC2CC(=O)NC(=O)C2)C(=O)[C@@H](C)C1
- T/C [6]: 90 % of control and 105 % of control
- T/C [7]: 112 % of control and 96 % of control
- T/C (dose: 10.0 mg/kg/injection, schedule: Q01DX010 (ip), vehicle: saline): 103 % of control
- T/C [8]: 92 % of control and 108 % of control
- T/C (dose: 20.0 mg/kg/injection, schedule: Q01DX010 (ip), vehicle: saline): 97 % of control
- T/C (dose: 30.0 mg/kg/injection, schedule: Q01DX Z (ip), vehicle: carboxymethylcellulose (CMC)): 114 % of control
- T/C (dose: 40.0 mg/kg/injection, schedule: Q01DX010 (ip), vehicle: saline): 95 % of control and 97 % of control

SMILES: O=c1[nH]cc(F)c(=O)[nH]1
- T/C (dose: 25.0 mg/kg/injection, schedule: Q01DX Z (ip), vehicle: saline): 92 % of control and 101 % of control
- T/C (dose: 50.0 mg/kg/injection, schedule: Q01DX Z (ip), vehicle: saline): 87 % of control and 93 % of control and 98 % of control

SMILES: O=C(Nc1ccc(C2=NCCN2)cc1)c1cccc(C(=O)Nc2ccc(C3=NCCN3)cc2)c1
- T/C (dose: 8.0 mg/kg/injection, schedule: Q01DX010 (ip), vehicle: saline): 177 % of control and 209 % of control
- T/C (dose: 12.5 mg/kg/injection, schedule: Q01DX Z (ip), vehicle: methylcellulose (MC)): 122 % of control
- T/C [9]: 211 % of control and 247 % of control
- T/C [10]: 225 % of control and 256 % of control
- T/C (dose: 50.0 mg/kg/injection, schedule: Q01DX Z (ip), vehicle: methylcellulose (MC)): 95 % of control
- T/C [11]: 235 % of control and 250 % of control

SMILES: N#[N+]c1cnc([O-])[nH]c1=O
- T/C (dose: 0.16 mg/kg/injection, schedule: Q01DX Z (ip), vehicle: methylcellulose (MC)): 106 % of control
- T/C (dose: 0.32 mg/kg/injection, schedule: Q01DX Z (ip), vehicle: methylcellulose (MC)): 103 % of control
- T/C (dose: 0.63 mg/kg/injection, schedule: Q01DX Z (ip), vehicle: methylcellulose (MC)): 100 % of control

SMILES: CSc1ncnc2nc[nH]c12
- T/C [7]: 93 % of control
- T/C [8]: 86 % of control
- T/C (dose: 31.0 mg/kg/injection, schedule: Q01DX Z (ip), vehicle: carboxymethylcellulose (CMC)): 122 % of control
- T/C (dose: 62.5 mg/kg/injection, schedule: Q01DX Z (ip), vehicle: carboxymethylcellulose (CMC)): 112 % of control
- T/C (dose: 125.0 mg/kg/injection, schedule: Q01DX Z (ip), vehicle: carboxymethylcellulose (CMC)): 107 % of control

SMILES: N=C(N)c1ccc(Nc2ccc(C(=N)N)cc2)cc1
- T/C (dose: 1.5 mg/kg/injection, schedule: Q01DX010 (ip), vehicle: saline): 101 % of control
- T/C (dose: 3.0 mg/kg/injection, schedule: Q01DX010 (ip), vehicle: saline): 97 % of control
- T/C (dose: 6.0 mg/kg/injection, schedule: Q01DX010 (ip), vehicle: saline): 102 % of control
- T/C (dose: 7.5 mg/kg/injection, schedule: Q01DX Z (ip), vehicle: water): 98 % of control
- T/C (dose: 12.0 mg/kg/injection, schedule: Q01DX010 (ip), vehicle: saline): 91 % of control
- T/C (dose: 12.5 mg/kg/injection, schedule: Q01DX Z (ip), vehicle: water): 86 % of control

SMILES: O[C@H](CN1CC1)[C@@H](O)CN1CC1
- T/C (dose: 0.01 mg/kg/injection, schedule: Q01DX Z (ip), vehicle: saline): 99 % of control
- T/C (dose: 0.02 mg/kg/injection, schedule: Q01DX Z (ip), vehicle: saline): 105 % of control
- T/C (dose: 0.37 mg/kg/injection, schedule: Q01DX Z (ip), vehicle: saline): 151 % of control

SMILES: c1ccc(CCSc2ncnc3nc[nH]c23)cc1
- T/C [1]: 93 % of control
- T/C [2]: 91 % of control
- T/C [3]: 100 % of control
- T/C [4]: 100 % of control

SMILES: [I][Hg][CH2]C1COC([CH2][Hg][I])CO1 (stereo not given)
- T/C (dose: 0.8 mg/kg/injection, schedule: Q01DX Z (ip), vehicle: methylcellulose (MC)): 94 % of control
- T/C [12]: 94 % of control
- T/C (dose: 6.25 mg/kg/injection, schedule: Q01DX010 (ip), vehicle: saline): 101 % of control
- T/C (dose: 12.5 mg/kg/injection, schedule: Q01DX010 (ip), vehicle: saline): 103 % of control

SMILES: O=C(CCBr)N1CCN(C(=O)CCBr)CC1
- T/C [12]: 86 % of control
- T/C (dose: 3.2 mg/kg/injection, schedule: Q01DX Z (ip), vehicle: methylcellulose (MC)): 90 % of control
- T/C (dose: 6.3 mg/kg/injection, schedule: Q01DX Z (ip), vehicle: methylcellulose (MC)): 100 % of control
